# Earlier results in US6534285B1 (priority 1984, dated 2003).
# Molecular target: AIDS reverse transcriptase (Human immunodeficiency virus type 1 group M subtype B, UniProt P04585)
# Conditions: reference 53
smiles,measurement,value
Cc1ccc(C(=O)Nc2ccc(S(=O)(=O)O)c3cc(S(=O)(=O)O)cc(S(=O)(=O)O)c23)cc1NC(=O)c1cccc(NC(=O)Nc2cccc(C(=O)Nc3cc(C(=O)Nc4ccc(S(=O)(=O)O)c5cc(S(=O)(=O)O)cc(S(=O)(=O)O)c45)ccc3C)c2)c1 [Suramin],inhibition of AIDS reverse transcriptase,known inhibitor
